In patent publication US9534008B2, “Small molecule compounds that control plant- and insect-pathogenic nematodes” (California Institute of Technology, priority 2011, dated 2017):
“Also recorded” adds a separate entry of the source.

Columns and labels:
[1] = tested on: Heterorhabditis bacteriophora, H. zealandica, H. floridensis; assay: Ascaroside function (Table 12), Heterorhabditis; format: in vivo, Heterorhabditis spp.; conditions: for Dispersal (of dauer larvae, infectious juveniles) / Repel Females/Herm.: Heterorhabditis bacteriophora, H. zealandica, H. floridensis, entries marked *; for act as dispersants and repellants in Heterorhabditis: alone, in concert, and/or in concert with ascr#9 or other ascarosides
Procedure: (§1) Various ascarosides and ascaroside blends were administered to various nematodes described below (Table 12). […] A very strong result of affecting nematode behavior is designated in the table as “strong.”

[2] = tested on: Meloidogyne javanica, M. floridensis, M. incognita, M. hapla; assay: Ascaroside function (Table 12), root-knot nematodes; format: in vivo, Meloidogyne spp.; conditions: for Dispersal (of dauer larvae, infectious juveniles) / Repel Females/Herm.: Meloidogyne javanica, M. floridensis, M. incognita, M. hapla, entries marked *; for act as dispersants and repellants in Meloidogyne species: alone, in concert, and/or in concert with ascr#9 or other ascarosides
Procedure: as §1

C. elegans [3] = assay: Ascaroside function (Table 12), C. elegans; format: in vivo, Caenorhabditis elegans; parameters: key to Attract Females/Herm. / Promote Dauer Formation / Attract Males: A very strong result of affecting nematode behavior is designated in the table as “strong.”
Procedure: as §1

[4] = tested on: C. elegans hermaphrodites; assay: Quadrant chemotaxis assay; format: in vivo; conditions: FIGS. 48A-B (spot attraction and quadrant chemotaxis)
Procedure: Chemotaxis to both non-indole and indole ascarosides was assessed on 10 cm four-quadrant petri plates (Wicks et al., Dev. Biol. 221:295-307 (2000), which is hereby incorporated by reference in its entirety). Each quadrant was separated from adjacent ones by plastic spacers (FIG. 1B). Pairs of opposite quadrants were filled with nematode growth medium (NGM) agar containing either indole ascarosides or non-indole ascarosides at different concentrations. Animals were washed gently in a S-basal buffer, placed in the center of a four-quadrant plate with ascarosides in alternating quadrants, and scored after 15 minutes and 30 minutes. A chemotaxis index was calculated as: (the number of animals on ascaroside quadrants minus the number of animals on buffer quadrants)/(total number of animals).
Chemotaxis to hbas#3 was assessed on 10 cm four-quadrant petri plates (Wicks et al., Dev. Biol. 221:295-307 (2000), which is hereby incorporated by reference in its entirety). Each quadrant was separated from adjacent ones by plastic spacers. Pairs of opposite quadrants were filled with nematode growth medium (NGM) agar containing different concentrations of hbas#3. Animals were washed gently in an S-basal buffer and placed in the center of a four-quadrant plate with ascarosides in alternating quadrants, and scored after 15 minutes and 30 minutes. A chemotaxis index was calculated as: (the number of animals on ascaroside quadrants minus the number of animals on buffer quadrants)/(total number of animals).

[5] = tested on: C. elegans hermaphrodites and males; assay: Spot attraction assay; format: in vivo
Procedure: The spot attraction assays were conducted according to a previously reported method (Pungaliya et al., PNAS 106:7708-13 (2009); Srinivasan et al., Nature 454:1115-18 (2008), which are hereby incorporated by reference in their entirety). For both C. elegans hermaphrodites and males, 50-60 worms were harvested daily at the fourth larval stage (L4) and stored segregatedly by sex at 20° C. overnight, to be used as young adults the following day. For the competition experiments, two conditions were used: 120 nM ascr#3 and 10 nM icas#3 (Condition 1), or 12 μM ascr#3 and 1 μM icas#3 (Condition 2) in water containing 10% ethanol. Aliquots were stored at −20° C. in 20 μL tubes. 10% ethanol in water was used as control.
Attraction assays with hbas#3 were conducted as previously reported (Srinivasan et al., Nature 454:1115-18 (2008); Pungaliya et al., Proc. Natl. Acad. Sci. U.S.A. 106:7708-13 (2009), which are hereby incorporated by reference in their entirety). For the attraction assays, 50-60 hermaphrodite worms were harvested daily at the early fourth larval stage (L4) and stored at 20° C. overnight to be used as young adults the following day. Hbas#3 was dissolved in water containing 10% ethanol. Aliquots were stored at −20° C. in 20 μL tubes. 10% ethanol in water was used as control.

Panagrellus redivivus = assay: Ascaroside function (Table 12), Panagrellus redivivus; format: in vivo
Procedure: as §1

S. glaseri = assay: Ascaroside function (Table 12), S. glaseri; format: in vivo
Procedure: as §1

[6] = tested on: several of the tested nematode species; assay: Retention assay, across species; format: in vivo; conditions: 1 nM, 1 μM and 1 mM tested
Procedure: OP50 E. coli was grown on a standard 5 cm agar plate (made with standard Nematode Growth Medium). The bacterial lawn was 16 mm in diameter and was grown overnight at 20° C. before being used in trials. Two 4 mm spots (0.6 μL) were placed on opposite sides of the bacterial lawn (using a transparent template to guide spot placement), and several minutes elapsed for the liquid to settle in before placing nematodes down on the assay. Recording began immediately upon worm placement. 0.6 μL of the control was placed on one side of the lawn, and 0.6 μL of the experimental cue was placed on the other side of the lawn, changing the location of the cue throughout trials between left/right and top/bottom to avoid bias.
Nematodes were isolated by gender at the L4 stage the day before being used in trials as developed adults. Worms were evenly divided and placed at two points equidistant from the foci of the scoring region. Trials were recorded for 20 minutes, and frames were collected for analysis at 1 frame per second. Results were averaged from at least three different trials. For every nematode species in this study, a different total number of worms (using water in both scoring regions) was tested to determine the minimum number of worms necessary for consistent unbiased results over a 20 minute trial. The total number of worms used in the multiple species assays depended on that species' optimal parameters. 10 worms were used for P. redivivus males and females, 20 worms were used for C. elegans males and O. dolichuridae males, and 14 worms were used for S. glaseri males. The Automated Software was used to compare worm occupancy in each scoring region over time, and the Chemotaxis Index (Bargmann et al., Cell 74:515-27 (1993), which is hereby incorporated by reference in its entirety) was adapted to score preference or avoidance to each ascaroside.
A video camera attached to the microscope produced a digital video stream, which was then analyzed. The ratio of the time the average worm spent in each region of interest was calculated for every trial. For ease of implementation, all worms in a single experiment were assumed to be roughly the same size. Thus worm pixels were counted instead of whole worms, allowing fractions of a worm in the region of interest to be taken into account. It also eliminated the need for a shape-based worm identification algorithm, and allowed each frame to be analyzed independently. A band-pass filter was applied to each frame to eliminate the effect of uneven lighting and also accentuate the worms against the background. The worm was then identified after thresholding the filtered image. Throughout each experiment, the locations and sizes of the regions of interest were known. Through the filtering described above, it is known which pixels are occupied by worms and which ones are not. Thus, the ratio of worm-pixels to all pixels inside the region of interest can be calculated to produce the worm-occupancy ratio. This calculation was done for every frame, giving a plot output of worm-occupancy ratio vs. time for each region.

C. elegans [7] = conditions: in vivo; cited from earlier work
S. feltiae = assay: Ascaroside function (Table 12), S. feltiae; format: in vivo, Steinernema feltiae
Procedure: as §1

C. elegans [8] = conditions: cited from earlier work
C. elegans males = assay: Attraction assay (long-range, point source); conditions: in vivo
Procedure: 10 cm standard chemotaxis plates were prepared (Bargmann et al., Cell 74:515-27 (1993), which is hereby incorporated by reference in its entirety) and stored at 4° C. until the day before use. Standard 1 cm-diameter copper pipes were sectioned into 1 cm-tall segments to use for the holding chambers. The females/hermaphrodites were isolated overnight, washed 3 times in M9 buffer, and then allowed to wander on a plate pre-conditioned with 50 uL of 1000× streptomycin for 2 hours to kill any bacteria that might produce a false positive attractant. The nematodes were then washed 3 times, and the supernatant from the last wash was placed in a copper chamber, as the control, 1 cm from the border of the 10 cm plate. The nematodes were suspended in M9 within the copper chamber, 1 cm from the border opposite the control chamber. After 6 hours, they were subsequently removed and replaced with 3 μL of 1M sodium azide. 100 C. elegans adult males were isolated overnight, washed several times in ddH2O, and placed at the center of the agar plate. After several hours, males paralyzed within 2 cm of each region were scored. The Chemotaxis Index (Bargmann et al., Cell 74:515-27 (1993), which is hereby incorporated by reference in its entirety) was then used to score male chemotaxis to either point source.

SMILES: C[C@H](CCCCCCCCCCC(=O)O)O[C@@H]1O[C@@H](C)[C@H](O)C[C@H]1O [ascr#22]
- Dispersal (of dauer larvae, infectious juveniles) [1]: ascr#22*
- Repel Females/Herm. [1]: ascr#22*
- act as dispersants and repellants in Heterorhabditis [1]: dispersants and repellants
- Dispersal (of dauer larvae, infectious juveniles) [2]: ascr#22*
- Repel Females/Herm. [2]: ascr#22*
- act as dispersants and repellants in Meloidogyne species [2]: dispersants and repellants

SMILES: C[C@H](CCCC/C=C/C(=O)O)O[C@@H]1O[C@@H](C)[C@H](OC(=O)c2ccc(O)cc2)C[C@H]1O [hbas#3, (8R)-(3′R-Hydroxy-5′R-(4-hydroxybenzoyloxy)-6′S-methyl-(2H)-tetrahydropyran-2′-yloxy)non-(2E)-enoic acid]
- Attract Females/Herm. (C. elegans [3]): ([very
- Attract Males (C. elegans [3]): ([strong])
- concentration at which C. elegans is strongly attracted (as low as) [4]: ≤ 10 femtomolar
- attraction of wild-type (N2) hermaphrodites ([5]; dose dependent manner): attracted

SMILES: C[C@@H]1O[C@@H](OCCCCC(=O)O)[C@H](O)C[C@H]1O [oscr#9, 5-(3′R,5′R-Dihydroxy-6′S-methyl-(2H)-tetrahydropyran-2′-yloxy)pentanoic acid]
- Attract Males (Panagrellus redivivus): oscr#9

SMILES: C[C@H](CC/C=C/C(=O)O)O[C@@H]1O[C@@H](C)[C@H](O)C[C@H]1O [ascr#7]
- Attract Males (C. elegans [3]): ascr#7
- Attract Males (Panagrellus redivivus): ascr#7
- Attract Males (S. glaseri): ascr#7
- preference for areas conditioned by ascaroside [6]: preferred

SMILES: CC(=O)CC[C@@H](C)O[C@@H]1O[C@@H](C)[C@H](O)C[C@H]1O[C@@H]1O[C@H](CO)[C@@H](O)[C@H](O)[C@H]1O [ascr#4]
- Promote Dauer Formation (C. elegans [3]): ascr#4

SMILES: C[C@@H]1O[C@@H](OCCC(=O)O)[C@H](O)C[C@H]1O [ascr#5]
- Promote Dauer Formation (C. elegans [3]): ([strong])
- Repel Females/Herm. (C. elegans [3]): ascr#5

SMILES: CC1O[C@@H](OCCCCCCCCC(=O)O)C(O)C[C@H]1O (stereo partly drawn) [oscr#10, 9-(3′R,5′R-Dihydroxy-6′S-methyl-(2H)-tetrahydropyran-2′-yloxy)nonanoic acid]
- Repel Males (Panagrellus redivivus): oscr#10

SMILES: CC1OC(O[C@H](C)CCCCCCCCC(=O)O)C(O)CC1O (stereo partly drawn) [ascr#18]
- Dispersal (of dauer larvae, infectious juveniles) [1]: ascr#18*
- Repel Females/Herm. [1]: ascr#18*
- act as dispersants and repellants in Heterorhabditis [1]: dispersants and repellants
- Dispersal (of dauer larvae, infectious juveniles) [2]: ascr#18*
- Repel Females/Herm. [2]: ascr#18*
- act as dispersants and repellants in Meloidogyne species [2]: dispersants and repellants

SMILES: CC1O[C@@H](O[C@H](C)CCCC/C=C/C(=O)O)[C@@H](O)C[C@H]1O (stereo partly drawn) [ascr#3]
- dauer-inducing activity (C. elegans [7]): promote dauer entry
- Attract Males (C. elegans [3]): ascr#3
- Promote Dauer Formation (C. elegans [3]): ([strong])
- Repel Females/Herm. (C. elegans [3]): ascr#3
- Attract Males (Panagrellus redivivus): ascr#3
- Attract Males (S. glaseri): ascr#3
- preference for areas conditioned by ascaroside [6]: preferred
- Dispersal (of dauer larvae, infectious juveniles) (S. feltiae): ascr#3
- most active amount for attraction in C. elegans (C. elegans [8]; from 1 μM concentration): ~1 pmol
- hermaphrodite repulsion (C. elegans [8]; in vivo): repels hermaphrodites; also recorded: strongly deter
- male attraction (C. elegans [8]; in vivo): strongly attracts males
- C. elegans male chemotaxis to a point source (C. elegans males): chemotax towards
- amount eliciting C. elegans male attraction from a distance (as low as) (C. elegans males): ≤ 5 femtomol

SMILES: C[C@H](CCCCC(=O)O)O[C@@H]1O[C@@H](C)[C@H](OC(=O)c2c[nH]c3ccccc23)C[C@H]1O [icas#1]
- Attract Females/Herm. (C. elegans [3]): ([strong])
- Attract Males (C. elegans [3]): ([strong])
- attraction of both C. elegans sexes ([5]; high concentrations, 1 μmol, N2 hermaphrodites and him-5 males): attractive; also recorded: attracted

SMILES: CC1OC(O[C@H](C)CCCCCCCC(=O)O)C(O)CC1O (stereo partly drawn) [ascr#16]
- Dispersal (of dauer larvae, infectious juveniles) [2]: ascr#16*
- Repel Females/Herm. [2]: ascr#16*
- act as dispersants and repellants in Meloidogyne species [2]: dispersants and repellants

SMILES: CC1OC(O[C@H](C)CCCCCCCCCC(=O)O)C(O)CC1O (stereo partly drawn) [ascr#20]
- Dispersal (of dauer larvae, infectious juveniles) [2]: ascr#20*
- Repel Females/Herm. [2]: ascr#20*
- act as dispersants and repellants in Meloidogyne species [2]: dispersants and repellants

SMILES: CC1O[C@@H](O[C@H](C)CCCCCCC(=O)O)C(O)C[C@H]1O (stereo partly drawn) [ascr#10]
- Attract Males (C. elegans [3]): ascr#10
- Attract Males (Panagrellus redivivus): ascr#10
- Attract Males (S. glaseri): ascr#10
- preference for areas conditioned by ascaroside [6]: preferred
- Dispersal (of dauer larvae, infectious juveniles) [2]: ascr#10*
- Repel Females/Herm. [2]: ascr#10*
- act as dispersants and repellants in Meloidogyne species [2]: dispersants and repellants
